Data reported in US20230321067A1, “DOSING REGIMEN COMPRISING 3-(1-OXOISOINDOLIN-2-YL)PIPERIDINE-2,6-DIONE DERIVATIVES” (Novartis AG, priority 2020, published 2023).

What was measured:
[1] = In vitro metabolism in liver microsomes and hepatocytes across species; assay type: in vitro ADME
Protocol: In vivo in the dog, very minor amounts of the N-dealkylation product and products derived from hydrolysis of the glutarimide moiety were detected in plasma. While the contribution of CYP-mediated oxidative metabolism to systemic clearance is unknown, a preliminary assessment of the enzymes involved was conducted using human recombinant CYPs in vitro.

IKZF2 [2] = target: T1, IKZF2 (Homo sapiens, UniProt Q96SW2+Q9UKS7); assay: IKZF2 degradation in vitro (FIG. 1); assay type: cell-based; set-up: prolabel (ProLabel enzyme-fragment tag); expressed in transfected cells; host or cells: HEK293T
Text: (§1) Although the specific transcriptional targets of IKZF2 remain to be defined, IKZF2 binds to and represses transcription from the IL-2 promoter region (Baine 2013). […] Finally, an in vitro assay recapitulating hallmarks of T cell dysfunction/exhaustion, by sequential TCR stimulation of isolated primary human T cells, was used to test the hypothesis that […] would rescue the exhausted phenotype and enhance Teff cell activity. […] In addition to IKZF1, other known cereblon substrates including translation termination factor G1 to S phase transition 1 (GSPT1) are not degraded by I-57 (FIG. 1).

CYP2C9 [3] = target: T2, CYP2C9 (Homo sapiens, UniProt P11712); assay: CYP inhibition: CYP2C9; assay type: in vitro ADME; conditions: I-57 concentrations of up to 100 μM
TMEM97 = target: T3, TMEM97 (Homo sapiens, UniProt Q5BJF2); assay: Whole cell proteomic analysis in 293T cells: TMEM97; assay type: cell-based
T3 construct: endogenous in cells; host or cells: 293T
Protocol: (§2) Other potential degradation targets of I-57 were evaluated in 293T cells using whole cell proteomic analysis. […] Subsequent analyses have confirmed that FIZ1 is degraded by about 50% at a 10 μM concentration of I-57 ([I-57 Investigator's Brochure]). […] FIZ1 is expressed in the neural retina where it transcriptionally represses the differentiation of photoreceptors. FIZ1 is also expressed in non-ocular tissues with unknown function.

[4] = Blood-to-plasma ratio, across species; assay type: in vitro ADME
Text: (§3) The binding to plasma protein of I-57 in vitro was moderate in all species, with an observed difference between rodents (73% in mouse, 76% in rat) and non-rodents (52% in dog and monkey, 54% in human). Blood-to-plasma ratios were in the range of 0.7-1.8 (human 1.1-1.3). […] Based on results with non-radiolabeled I-57 in the dog, a significant amount of unchanged I-57 was renally eliminated (˜20% of dose).

CYP2B6 [5] = target: T4, CYP2B6 (Homo sapiens, UniProt P20813); assay: CYP inhibition: CYP2B6; assay type: in vitro ADME; conditions: I-57 concentrations of up to 100 μM
FIZ1 = target: T5, FIZ1 (Homo sapiens, UniProt Q96SL8); assay: Whole cell proteomic analysis in 293T cells and subsequent analyses: FIZ1; assay type: cell-based
T5 construct: endogenous in cells; host or cells: 293T
Protocol: as §2

CYP2A6 = CYP2A6 (Homo sapiens, UniProt P11509); assay: CYP inhibition: CYP2A6; assay type: in vitro ADME; conditions: I-57 concentrations of up to 100 μM
CYP2C9 [6] = target: T2, CYP2C9; assay: Time-dependent CYP inhibition: CYP2C9; assay type: in vitro ADME; conditions: I-57 concentrations of up to 100 μM
GSPT1 = target: T6, GSPT1 (Homo sapiens, UniProt P15170); assay: GSPT1 degradation in vitro (FIG. 1); assay type: cell-based
T6 construct: prolabel (ProLabel enzyme-fragment tag); expressed in transfected cells; host or cells: HEK293T
Text: as §1

CYP2B6 [7] = target: T4, CYP2B6; assay: Time-dependent CYP inhibition: CYP2B6; assay type: in vitro ADME; conditions: I-57 concentrations of up to 100 μM
primary human Tregs = assay: Suppression of Teff proliferation by in vitro expanded primary human Tregs; assay type: cell-based
[8] = In vivo non-clinical PK, mouse
Protocol: (§4) The in vivo non-clinical PK profile of I-57 was investigated in mouse, rat, dog and cynomolgus monkey using I-57 free base. […] After p.o. administration, the absorption of I-57 was rapid with peak blood concentration (Tmax) occurring between 1 and 4 hours. […] In high dose PK and toxicology studies with I-57 the exposures in mouse, rat and monkey increased with dose.
as §3

IKZF2 [9] = target: T1, IKZF2; assay: Multi-dose PK/PD study in human PBMC adoptive transfer mouse model harboring MDA-MB231 xenografts: IKZF2 expression in human CD4+FOXP3+ regulatory T cells (FIG. 6, 7); assay type: in vivo; set-up: endogenous in cells; host or cells: primary human PBMCs; conditions: 14 daily oral doses of 0.3, 1, 3 and 30 mg/kg, hPBMC AdT mouse model
Protocol: FIG. 6 is a pictorial representation of the multi-dose PK/PD study design in the human PBMC adoptive transfer mouse model harboring MDA-MB231 xenografts. Fourteen consecutive daily doses of Compound I-57 was administered at 0.3 mg/kg, 1 mg/kg, 3 mg/kg or 30 mg/kg.
FIG. 7 is a graph showing the change in the IKZF2 expression in human CD4+FOXP3+ regulatory T cells isolated from MDA-MB231 tumor xenografts (Tumor) or blood (Periphery) following 14 daily oral doses of 0.3, 1, 3 and 30 mg/kg Compound I-57 administered to the hPBMC AdT model.

IL2 mRNA = assay: Upregulation of IL2 mRNA in TCR-stimulated Jurkat cells (FIG. 2B); assay type: cell-based; conditions: increasing concentrations
Protocol: FIG. 2B is a graph showing the change upregulation of IL2 mRNA in TCR-stimulated Jurkat cells after IKZF2 degradation when cells were treated with increasing concentrations of Compound I-57.

IKZF2 [10] = assay: Degradation of IKZF2 in primary PBMCs, cynomolgus monkey (FIG. 3); assay type: cell-based
Text: FIG. 3. is a bar graph showing the degradation of IKZF2 in primary PBMCs obtained from rabbit, dog, pig, cynomolgus monkey and human, and in primary splenocytes of mouse and rat and treated with Compound I-57.

[11] = In vivo non-clinical PK profile, all species tested; set-up: species or system mouse, rat, dog and cynomolgus monkey
Protocol: as §4

[12] = i.v. administration, all species tested, I-57 free base

T1 sequence (Q9UKS7 whole entry, the tested form may be a part): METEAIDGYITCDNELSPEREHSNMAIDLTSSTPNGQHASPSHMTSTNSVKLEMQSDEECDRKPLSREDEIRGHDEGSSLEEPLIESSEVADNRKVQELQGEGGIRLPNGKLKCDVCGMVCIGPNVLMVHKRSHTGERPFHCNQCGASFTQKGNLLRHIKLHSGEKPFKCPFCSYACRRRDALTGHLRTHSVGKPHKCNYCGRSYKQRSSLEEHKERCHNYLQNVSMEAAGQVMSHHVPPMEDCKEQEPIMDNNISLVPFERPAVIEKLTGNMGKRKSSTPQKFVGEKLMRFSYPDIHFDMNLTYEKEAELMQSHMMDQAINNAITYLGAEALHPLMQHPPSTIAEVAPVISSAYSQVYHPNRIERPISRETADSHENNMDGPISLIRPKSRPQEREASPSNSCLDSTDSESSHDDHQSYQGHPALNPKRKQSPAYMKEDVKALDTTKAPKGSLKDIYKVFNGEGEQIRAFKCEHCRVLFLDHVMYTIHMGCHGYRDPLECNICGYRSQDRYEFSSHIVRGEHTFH
T1 sequence (Q96SW2 whole entry, the tested form may be a part): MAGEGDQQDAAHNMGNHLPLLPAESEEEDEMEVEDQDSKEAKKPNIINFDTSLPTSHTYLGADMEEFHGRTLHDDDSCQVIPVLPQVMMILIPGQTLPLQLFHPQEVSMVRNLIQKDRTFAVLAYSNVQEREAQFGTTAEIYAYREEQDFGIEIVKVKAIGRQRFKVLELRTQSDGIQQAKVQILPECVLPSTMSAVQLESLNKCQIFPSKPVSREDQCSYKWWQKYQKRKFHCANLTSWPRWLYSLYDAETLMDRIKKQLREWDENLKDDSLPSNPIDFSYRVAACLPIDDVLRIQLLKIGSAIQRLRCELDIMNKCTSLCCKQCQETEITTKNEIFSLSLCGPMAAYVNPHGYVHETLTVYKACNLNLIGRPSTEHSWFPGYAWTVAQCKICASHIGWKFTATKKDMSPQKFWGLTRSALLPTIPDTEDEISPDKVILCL
T1 sequence (Q16531 whole entry partner, the tested form may be a part): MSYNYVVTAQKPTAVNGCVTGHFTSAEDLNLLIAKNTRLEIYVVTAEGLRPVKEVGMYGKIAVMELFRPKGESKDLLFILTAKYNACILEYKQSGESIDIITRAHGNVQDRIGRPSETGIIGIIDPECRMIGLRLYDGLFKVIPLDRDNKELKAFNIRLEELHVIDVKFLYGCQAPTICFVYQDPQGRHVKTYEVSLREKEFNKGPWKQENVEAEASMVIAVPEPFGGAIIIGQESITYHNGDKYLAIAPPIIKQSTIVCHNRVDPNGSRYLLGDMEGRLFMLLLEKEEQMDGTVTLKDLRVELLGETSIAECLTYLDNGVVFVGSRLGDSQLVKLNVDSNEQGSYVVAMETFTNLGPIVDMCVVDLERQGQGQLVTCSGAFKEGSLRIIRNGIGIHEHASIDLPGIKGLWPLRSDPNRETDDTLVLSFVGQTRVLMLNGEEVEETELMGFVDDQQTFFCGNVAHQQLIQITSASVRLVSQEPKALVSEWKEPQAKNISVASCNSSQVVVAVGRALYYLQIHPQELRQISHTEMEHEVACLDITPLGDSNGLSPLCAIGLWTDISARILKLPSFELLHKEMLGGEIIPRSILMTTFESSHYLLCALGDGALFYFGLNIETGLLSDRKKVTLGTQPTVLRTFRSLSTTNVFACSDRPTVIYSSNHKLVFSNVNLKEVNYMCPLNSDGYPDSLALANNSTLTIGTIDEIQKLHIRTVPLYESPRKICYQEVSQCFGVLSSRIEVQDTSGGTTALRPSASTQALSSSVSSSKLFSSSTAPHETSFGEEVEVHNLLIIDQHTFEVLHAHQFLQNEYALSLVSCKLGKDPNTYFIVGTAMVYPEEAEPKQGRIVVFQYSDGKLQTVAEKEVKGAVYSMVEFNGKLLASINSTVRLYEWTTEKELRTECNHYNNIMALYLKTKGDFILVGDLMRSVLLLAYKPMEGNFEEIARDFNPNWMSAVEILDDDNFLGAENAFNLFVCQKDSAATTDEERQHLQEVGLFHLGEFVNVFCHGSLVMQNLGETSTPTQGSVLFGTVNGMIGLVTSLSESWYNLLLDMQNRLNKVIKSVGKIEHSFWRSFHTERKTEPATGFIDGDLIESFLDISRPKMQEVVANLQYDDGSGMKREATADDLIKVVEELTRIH
T2 sequence (P11712 whole entry): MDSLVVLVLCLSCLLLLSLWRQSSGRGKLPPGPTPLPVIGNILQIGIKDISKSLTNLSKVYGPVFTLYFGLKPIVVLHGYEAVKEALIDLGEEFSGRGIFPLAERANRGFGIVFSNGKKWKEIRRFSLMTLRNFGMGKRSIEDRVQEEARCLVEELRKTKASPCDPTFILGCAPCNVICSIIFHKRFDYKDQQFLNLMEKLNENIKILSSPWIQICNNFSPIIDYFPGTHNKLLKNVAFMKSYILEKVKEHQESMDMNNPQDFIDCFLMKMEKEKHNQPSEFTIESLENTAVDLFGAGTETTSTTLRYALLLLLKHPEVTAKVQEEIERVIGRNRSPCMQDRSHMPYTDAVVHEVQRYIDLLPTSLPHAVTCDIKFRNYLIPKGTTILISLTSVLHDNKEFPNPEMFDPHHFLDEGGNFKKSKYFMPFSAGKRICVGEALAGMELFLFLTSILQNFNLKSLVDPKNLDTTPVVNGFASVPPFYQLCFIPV
T4 sequence (P20813 whole entry): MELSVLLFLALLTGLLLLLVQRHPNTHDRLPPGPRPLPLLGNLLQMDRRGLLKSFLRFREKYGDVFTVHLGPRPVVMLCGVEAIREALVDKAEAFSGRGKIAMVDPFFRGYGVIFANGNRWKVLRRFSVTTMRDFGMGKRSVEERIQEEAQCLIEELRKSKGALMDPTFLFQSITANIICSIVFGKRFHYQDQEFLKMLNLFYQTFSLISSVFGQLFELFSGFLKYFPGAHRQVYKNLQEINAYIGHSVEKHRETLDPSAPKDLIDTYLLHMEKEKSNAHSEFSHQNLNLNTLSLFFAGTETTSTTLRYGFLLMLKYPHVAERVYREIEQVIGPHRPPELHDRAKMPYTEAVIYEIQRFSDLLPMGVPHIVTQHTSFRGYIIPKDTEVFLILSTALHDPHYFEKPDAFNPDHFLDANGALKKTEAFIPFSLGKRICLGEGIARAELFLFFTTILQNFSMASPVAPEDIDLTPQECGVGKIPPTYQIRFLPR
T5 sequence (Q96SL8 whole entry): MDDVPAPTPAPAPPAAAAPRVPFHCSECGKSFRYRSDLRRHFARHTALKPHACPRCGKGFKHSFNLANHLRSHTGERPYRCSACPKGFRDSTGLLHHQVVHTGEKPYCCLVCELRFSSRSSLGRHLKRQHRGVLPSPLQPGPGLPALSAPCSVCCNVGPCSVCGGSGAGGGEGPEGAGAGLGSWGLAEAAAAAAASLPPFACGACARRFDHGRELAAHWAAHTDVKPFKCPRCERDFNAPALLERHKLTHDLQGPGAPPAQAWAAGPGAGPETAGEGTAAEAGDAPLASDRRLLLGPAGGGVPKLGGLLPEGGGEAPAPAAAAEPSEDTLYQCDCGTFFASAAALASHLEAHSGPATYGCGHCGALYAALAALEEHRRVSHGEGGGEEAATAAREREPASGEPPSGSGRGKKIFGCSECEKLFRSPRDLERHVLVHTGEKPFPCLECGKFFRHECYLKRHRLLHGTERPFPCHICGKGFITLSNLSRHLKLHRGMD
Chain of CYP2A6 (P11509 whole entry): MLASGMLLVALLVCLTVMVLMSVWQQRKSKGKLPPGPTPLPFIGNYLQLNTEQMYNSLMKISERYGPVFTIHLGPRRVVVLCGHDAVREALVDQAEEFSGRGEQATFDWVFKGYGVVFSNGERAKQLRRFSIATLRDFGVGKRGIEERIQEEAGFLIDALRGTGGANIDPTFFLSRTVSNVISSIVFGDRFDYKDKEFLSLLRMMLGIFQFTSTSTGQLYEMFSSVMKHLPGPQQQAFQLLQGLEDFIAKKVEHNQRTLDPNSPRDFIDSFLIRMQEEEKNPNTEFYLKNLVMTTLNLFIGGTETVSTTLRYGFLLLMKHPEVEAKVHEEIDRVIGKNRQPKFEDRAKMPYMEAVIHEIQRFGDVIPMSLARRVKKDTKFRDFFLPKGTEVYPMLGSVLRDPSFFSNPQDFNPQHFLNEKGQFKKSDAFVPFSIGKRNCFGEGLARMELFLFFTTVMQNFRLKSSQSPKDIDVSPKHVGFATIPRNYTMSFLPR
T6 sequence (Q96SW2 whole entry partner, the tested form may be a part): as the sequence (Q96SW2 whole entry, the tested form may be a part) above
T6 sequence (Q16531 whole entry partner, the tested form may be a part): as the sequence (Q16531 whole entry partner, the tested form may be a part) above
T6 sequence (P15170 whole entry, the tested form may be a part): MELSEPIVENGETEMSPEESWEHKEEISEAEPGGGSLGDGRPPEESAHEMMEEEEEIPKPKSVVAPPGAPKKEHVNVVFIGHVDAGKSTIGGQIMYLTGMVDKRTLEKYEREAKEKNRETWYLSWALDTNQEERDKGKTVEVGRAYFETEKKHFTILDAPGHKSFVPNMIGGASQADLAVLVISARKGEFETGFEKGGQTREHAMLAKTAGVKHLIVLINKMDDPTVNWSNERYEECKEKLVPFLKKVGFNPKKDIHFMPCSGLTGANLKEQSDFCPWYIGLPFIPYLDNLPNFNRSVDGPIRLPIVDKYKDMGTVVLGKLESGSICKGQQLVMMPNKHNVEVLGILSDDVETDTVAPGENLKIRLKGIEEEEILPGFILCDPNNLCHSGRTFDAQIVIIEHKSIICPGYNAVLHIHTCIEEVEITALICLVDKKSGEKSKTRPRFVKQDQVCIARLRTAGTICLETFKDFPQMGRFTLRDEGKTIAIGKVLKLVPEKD
T3 sequence (Q5BJF2 whole entry): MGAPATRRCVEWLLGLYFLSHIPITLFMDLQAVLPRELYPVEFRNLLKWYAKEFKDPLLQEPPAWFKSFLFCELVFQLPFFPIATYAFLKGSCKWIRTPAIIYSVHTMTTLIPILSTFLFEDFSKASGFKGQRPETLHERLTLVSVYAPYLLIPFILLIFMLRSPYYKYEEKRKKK

With `O=C1CCC(N2Cc3cc(C4CCN(Cc5ccccc5)CC4)ccc3C2=O)C(=O)N1` (stereo not shown) [Compound I-57, 3-(5-(1-benzylpiperidin-4-yl)-1-oxoisoindolin-2-yl)piperidine-2,6-dione] the metabolic stability [1] was “very stable and no appreciable metabolic turnover was observed”, the “degradation of IKZF2” value (IKZF2 [2]) was “potent and selective degrader of IKZF2” and the “inhibition of CYP2C9” value (CYP2C9 [3]) was “very little and no inhibition”. The “degradation of TMEM97” value (TMEM97) was “degraded”, the blood plasma ratio [4] was 0.7 to 1.8 and the “inhibition of CYP2B6” value (CYP2B6 [5]) was “very little and no inhibition”. The “degradation of FIZ1” value (FIZ1; 10 μM I-57, subsequent analyses) was “about 50%”, the “degradation of FIZ1” value (FIZ1; 293T cells, whole cell proteomic analysis) was “degraded” and the “inhibition of CYP2A6” value (CYP2A6) was “very little and no inhibition”. For the same molecule, the “time-dependent inhibition of CYP2C9” value (CYP2C9 [6]) was “no apparent time-dependent inhibition”, the “degradation of GSPT1” value (GSPT1) was “not degraded” and the “time-dependent inhibition of CYP2B6” value (CYP2B6 [7]) was “no apparent time-dependent inhibition”. The “IKZF2 protein level in Treg cells” value (primary human Tregs; primary human Tregs expanded in vitro) was “reduced proportionally to the I-57 dose”, the “capacity of Tregs to suppress Teff proliferation” value (primary human Tregs; primary human Tregs expanded in vitro in the presence of I-57) was “reduced capacity to suppress Teff proliferation” and the “dose proportionality of AUC” value ([8]; between 3 mg/kg and 100 mg/kg) was “roughly dose proportional”. For the same molecule, the bioavailability ([8]; blood, po) was 53%, the Kp ([8]; brain, read-out: brain/plasma ratio) was 0.07 and the “IKZF2 degradation (reduction of the percentage of IKZF2 positive Tregs)” value (IKZF2 [9]; peripheral blood) was “robust dose and exposure-dependent IKZF2 degradation”. The “IKZF2 degradation (reduction of the percentage of IKZF2 positive Tregs)” value (IKZF2 [9]; tumor (MDA-MB231 xenografts)) was “robust dose and exposure-dependent IKZF2 degradation”, the “IL-2 mRNA expression” value (IL2 mRNA) was “expressed more IL-2 mRNA in a dose-dependent manner” and the “degradation of IKZF2” value (IKZF2 [10]) was “degradation was observed”. For the same molecule, the “blood clearance (CL)” value [11, 12] was “low to moderate”, the “terminal half-life (T½)” value [11, 12] was “moderate” and the “volume of distribution (Vss)” value [11, 12] was “moderate to high”. It also gave a Tmax ([11]; mouse, rat, dog, cynomolgus monkey, blood, po, p.o. administration, read-out: peak blood concentration (Tmax)) of 1 to 4 h.
